Assay [1] has as its target T1, Recombinant (1-346) HPK1 (h) (Homo sapiens, UniProt Q92918).
T1 construct: Recombinant (1-346) HPK1 (h) is incubated with 8 mM MOPS pH 7.0
T1 sequence (Q92918 1-346): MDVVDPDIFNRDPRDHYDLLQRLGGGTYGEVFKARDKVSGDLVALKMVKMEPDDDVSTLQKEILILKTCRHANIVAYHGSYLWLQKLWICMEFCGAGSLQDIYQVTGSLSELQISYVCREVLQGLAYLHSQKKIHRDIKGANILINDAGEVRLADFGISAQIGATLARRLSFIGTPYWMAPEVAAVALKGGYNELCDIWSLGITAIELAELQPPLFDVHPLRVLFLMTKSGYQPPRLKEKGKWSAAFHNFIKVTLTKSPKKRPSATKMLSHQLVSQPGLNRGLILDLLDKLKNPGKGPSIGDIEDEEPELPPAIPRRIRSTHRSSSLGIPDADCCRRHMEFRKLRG
Put plainly: HPK1 Human STE Kinase Enzymatic Radiometric Assay. As to conditions: read-out: HPK1 IC50 nM Range*. Type of assay: biochemical. As for the experimental part: A stock solution of 10 mM of test compound is prepared in DMSO. The compound plate was prepared by 3-fold and 9-point serial dilutions. […] The reaction is initiated by The addition of the Mg/ATP mix. After incubation for 40 minutes at RT, the reaction is stopped by the addition of phosphoric acid to a concentration of 0.5%.

The target in the next assay is Lck (h) (Homo sapiens, UniProt P06239). As to the kind of experiment: Lck Human  Kinase Enzymatic Radiometric Assay. Format: biochemical. As to conditions: read-out: Lck IC50 nM Range*. Summed up:
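Substrate 33P-incorporation measured by scintillation counting after spotting on P30 filtermat and phosphoric acid washes. Human Lck reacted 40 min at RT in 50 mM Tris pH 7.5 with 10 mM MgAcetate, [gamma-33P]-ATP, 250 uM Cdc2 peptide, 0.1 mM EGTA and 0.1 mM Na3VO4.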

Counter-ions that a name gives are not always drawn. Some results are limits rather than exact numbers.

Here are results for 25 compounds from patent US20240343704A1, “HALO-SUBSTITUTED AMINO PYRIDINE COMPOUNDS AS INHIBITORS OF THE HAEMATOPOIETIC PROGENITOR KINASE 1 (HPK1)” (priority 2021, published 2024).

A word on the IC50: it is the concentration needed to halve the response being measured.

Chain of Lck (h) (P06239 whole entry): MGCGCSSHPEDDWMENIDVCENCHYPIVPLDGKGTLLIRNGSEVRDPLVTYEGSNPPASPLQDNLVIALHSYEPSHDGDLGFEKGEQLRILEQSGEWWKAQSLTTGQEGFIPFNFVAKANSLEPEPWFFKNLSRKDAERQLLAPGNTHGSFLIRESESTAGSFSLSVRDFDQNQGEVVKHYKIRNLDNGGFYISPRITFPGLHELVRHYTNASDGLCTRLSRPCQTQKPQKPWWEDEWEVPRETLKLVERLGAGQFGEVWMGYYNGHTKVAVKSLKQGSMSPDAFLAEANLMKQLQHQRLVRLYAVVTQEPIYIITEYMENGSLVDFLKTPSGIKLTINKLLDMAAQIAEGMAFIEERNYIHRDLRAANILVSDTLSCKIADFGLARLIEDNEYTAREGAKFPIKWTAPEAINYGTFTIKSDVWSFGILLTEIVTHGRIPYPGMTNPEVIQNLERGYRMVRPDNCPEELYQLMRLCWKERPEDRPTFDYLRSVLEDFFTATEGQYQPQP

For the compound `COCCN1CCC(Oc2ccc(-c3cc(-c4cc5c(cc4F)C(=O)NCC5)c(N)nc3F)cc2C#N)CC1` [I-303, 5-(6-amino-2-fluoro-5-(7-fluoro-1-oxo-1,2,3,4-tetrahydroisoquinolin-6-yl)pyridin-3-yl)-2-((1-(2-methoxyethyl)piperidin-4-yl)oxy)benzonitrile], the values for the IC50 (in assay [1]; at Lck (h)) were 11 to 100 nM and > 1000 nM, respectively.

Consider `COc1cc(OC2CCN(C(C)=O)CC2)ccc1-c1cc(-c2ccc3c(c2)CCNC3=O)c(N)nc1F` [I-304, 6-(5-(4-((1-acetylpiperidin-4-yl)oxy)-2-methoxyphenyl)-2-amino-6-fluoropyridin-3-yl)-3,4-dihydroisoquinolin-1(2H)-one], for which the IC50 in assay [1] is 0.1 to 10 nM; on Lck (h) it was > 1000 nM.

With `COc1cc(-c2cc(-c3ccc4c(c3)CCNC4=O)c(N)nc2F)ccc1OC1CCN(C(C)=O)CC1` [I-305, 6-(5-(4-((1-acetylpiperidin-4-yl)oxy)-3-methoxyphenyl)-2-amino-6-fluoropyridin-3-yl)-3,4-dihydroisoquinolin-1(2H)-one], the IC50 in assay [1] was 0.1 to 10 nM; at Lck (h), > 1000 nM.

Take `CC(=O)N1CCC(Oc2ccc(-c3cc(-c4ccc5c(c4)CCNC5=O)c(N)nc3F)c3c2OCO3)CC1` [I-306, 6-(5-(7-((1-acetylpiperidin-4-yl)oxy)benzo[d][1,3]dioxol-4-yl)-2-amino-6-fluoropyridin-3-yl)-3,4-dihydroisoquinolin-1(2H)-one]: the values for the IC50 (in assay [1]; at Lck (h)) were 0.1 to 10 nM and > 1000 nM, respectively.

Regarding `Nc1nc(F)c(-c2ccc(N3CCN(CC4CC4)CC3)cc2)cc1-c1cc(F)c2c(c1)CCNC2=O` [I-307, 6-(2-amino-5-(4-(4-(cyclopropylmethyl)piperazin-1-yl)phenyl)-6-fluoropyridin-3-yl)-8-fluoro-3,4-dihydroisoquinolin-1(2H)-one], the values for the IC50 (in assay [1]; on Lck (h)) were 0.1 to 10 nM and > 1000 nM, respectively.

Take `Nc1nc(F)c(-c2ccc(C3CCN(CC4CC4)CC3)cc2)cc1-c1cc(F)c2c(c1)CCNC2=O` [I-308, 6-(2-amino-5-(4-(1-(cyclopropylmethyl)piperidin-4-yl)phenyl)-6-fluoropyridin-3-yl)-8-fluoro-3,4-dihydroisoquinolin-1(2H)-one]: the results for the IC50 (in assay [1]; on Lck (h)) were 0.1 to 10 nM and > 1000 nM, respectively.

As to `Nc1nc(F)c(-c2ccc(N3CCOCC3)cc2)cc1-c1cc(F)c2c(c1)CCNC2=O` [I-309, 6-(2-amino-6-fluoro-5-(4-morpholinophenyl)pyridin-3-yl)-8-fluoro-3,4-dihydroisoquinolin-1(2H)-one], the IC50 was 0.1 to 10 nM in assay [1] and > 1000 nM on Lck (h).

`CC(C)N1CCN(c2ccc(-c3cc(-c4ccc5c(c4)CC(CN(C)C)NC5=O)c(N)nc3F)cc2)CC1` (centres unmarked) [I-310, 6-(2-amino-6-fluoro-5-(4-(4-isopropylpiperazin-1-yl)phenyl)pyridin-3-yl)-3-((dimethylamino)methyl)-3,4-dihydroisoquinolin-1(2H)-one]: the IC50 in assay [1] was 11 to 100 nM; on Lck (h), > 1000 nM.

On to `CN(C)CC1Cc2cc(-c3cc(-c4ccc(N5CCOCC5)cc4)c(F)nc3N)ccc2C(=O)N1` (centres unmarked) [I-311, 6-(2-amino-6-fluoro-5-(4-morpholinophenyl)pyridin-3-yl)-3-((dimethylamino)methyl)-3,4-dihydroisoquinolin-1(2H)-one], for which the results for the IC50 (in assay [1]; at Lck (h)) were 11 to 100 nM and > 1000 nM, respectively.

Turning to `CN(C)CC1Cc2cc(-c3cc(-c4ccc(Cl)cc4)c(F)nc3N)ccc2C(=O)N1` (centres unmarked) [I-312, 6-(2-amino-5-(4-chlorophenyl)-6-fluoropyridin-3-yl)-3-((dimethylamino)methyl)-3,4-dihydroisoquinolin-1(2H)-one], the results for the IC50 (in assay [1]; at Lck (h)) were 101 to 1000 nM and > 1000 nM, respectively.

With `Cc1cc(-c2cc(-c3cc4c(cc3F)C(=O)NCC4)c(N)nc2F)ccn1` [I-313, 6-(6-amino-2-fluoro-2′-methyl-[3,4′-bipyridin]-5-yl)-7-fluoro-3,4-dihydroisoquinolin-1(2H)-one], the half-maximal inhibitory concentration (IC50) in assay [1] was 11 to 100 nM; on Lck (h), > 1000 nM.

For the compound `Nc1nc(F)c(-c2ccnc(OCC3CC3)c2)cc1-c1cc2c(cc1F)C(=O)NCC2` [I-314, 6-(6-amino-2′-(cyclopropylmethoxy)-2-fluoro-[3,4′-bipyridin]-5-yl)-7-fluoro-3,4-dihydroisoquinolin-1(2H)-one], the IC50 in assay [1] was 101 to 1000 nM; on Lck (h) it was > 1000 nM.

Consider `Nc1nc(F)c(-c2cccc(OCC3CC3)c2)cc1-c1cc2c(cc1F)C(=O)NCC2` [I-315, 6-(2-amino-5-(3-(cyclopropylmethoxy)phenyl)-6-fluoropyridin-3-yl)-7-fluoro-3,4-dihydroisoquinolin-1(2H)-one], for which the IC50 was 101 to 1000 nM in assay [1] and > 1000 nM at Lck (h).

`Nc1nc(F)c(-c2ccc(OCC3CC3)cc2)cc1-c1cc2c(cc1F)C(=O)NCC2` [I-316, 6-(2-amino-5-(4-(cyclopropylmethoxy)phenyl)-6-fluoropyridin-3-yl)-7-fluoro-3,4-dihydroisoquinolin-1(2H)-one]: the IC50 in assay [1] was 11 to 100 nM; on Lck (h), > 1000 nM.

Regarding `Nc1nc(F)c(-c2ccc(OC3CN(C(=O)CC4CC4)C3)cc2)cc1-c1ccc2c(c1)CCNC2=O` [I-317, 6-(2-amino-5-(4-((1-(2-cyclopropylacetyl)azetidin-3-yl)oxy)phenyl)-6-fluoropyridin-3-yl)-3,4-dihydroisoquinolin-1(2H)-one], the IC50 is 0.1 to 10 nM in assay [1] and > 1000 nM at Lck (h).

As to `Nc1nc(F)c(-c2ccc(OC3CN(C4COC4)C3)cc2)cc1-c1ccc2c(c1)CCNC2=O` [I-318, 6-(2-amino-6-fluoro-5-(4-((1-(oxetan-3-yl)azetidin-3-yl)oxy)phenyl)pyridin-3-yl)-3,4-dihydroisoquinolin-1(2H)-one], the IC50 in assay [1] is 11 to 100 nM; at Lck (h), > 1000 nM.

Regarding `C[C@@H]1CN(c2ccc(-c3cc(-c4ccc5c(c4)CCNC5=O)c(N)nc3F)cc2)C[C@H](C)N1` [I-319, 6-(2-amino-5-(4-((3R,5S)-3,5-dimethylpiperazin-1-yl)phenyl)-6-fluoropyridin-3-yl)-3,4-dihydroisoquinolin-1(2H)-one], the IC50 was 0.1 to 10 nM in assay [1] and > 1000 nM on Lck (h).

As for `Nc1nc(F)c(-c2ccc([C@]34C[C@H]3CN(CC3CC3)C4)cc2)cc1-c1cc(F)c2c(c1)CCNC2=O` [I-320, 6-(2-amino-5-(4-((1S,5R)-3-(cyclopropylmethyl)-3-azabicyclo[3.1.0]hexan-1-yl)phenyl)-6-fluoropyridin-3-yl)-8-fluoro-3,4-dihydroisoquinolin-1(2H)-one formate], the figures for the IC50 (in assay [1]; on Lck (h)) were 0.1 to 10 nM and 101 to 1000 nM, respectively.

With `Nc1nc(F)c(-c2ccc(OC3CN(CC4CC4)C3)cc2)cc1-c1ccc2c(c1)CCNC2=O` [I-321, 6-(2-amino-5-(4-((1-(cyclopropylmethyl)azetidin-3-yl)oxy)phenyl)-6-fluoropyridin-3-yl)-3,4-dihydroisoquinolin-1(2H)-one], the IC50 was 0.1 to 10 nM in assay [1] and > 1000 nM on Lck (h).

Consider `Nc1nc(F)c(-c2ccc(OC3CCN(CC4CC4)CC3)cc2)cc1-c1ccc2c(c1)CCNC2=O` [I-322, 6-(2-amino-5-(4-((1-(cyclopropylmethyl)piperidin-4-yl)oxy)phenyl)-6-fluoropyridin-3-yl)-3,4-dihydroisoquinolin-1(2H)-one], for which the IC50 in assay [1] was 0.1 to 10 nM; at Lck (h), > 1000 nM.

Regarding `Nc1nc(F)c(-c2ccc(OC3CCN(C(=O)CC4CC4)CC3)cc2)cc1-c1cc2c(cc1F)C(=O)NCC2` [I-323, 6-(2-amino-5-(4-((1-(2-cyclopropylacetyl)piperidin-4-yl)oxy)phenyl)-6-fluoropyridin-3-yl)-7-fluoro-3,4-dihydroisoquinolin-1(2H)-one], the figures for the IC50 (in assay [1]; on Lck (h)) were 0.1 to 10 nM and > 1000 nM, respectively.

Consider `Nc1nc(F)c(-c2ccc(OC3CCN(CC4CC4)CC3)cc2)cc1-c1cc2c(cc1F)C(=O)NCC2` [I-324, 6-(2-amino-5-(4-((1-(cyclopropylmethyl)piperidin-4-yl)oxy)phenyl)-6-fluoropyridin-3-yl)-7-fluoro-3,4-dihydroisoquinolin-1(2H)-one], for which the IC50 in assay [1] was 0.1 to 10 nM; at Lck (h), > 1000 nM.

As to `Nc1nc(F)c(-c2ccc(OC3CCN(C4COC4)CC3)cc2)cc1-c1cc2c(cc1F)C(=O)NCC2` [I-325, 6-(2-amino-6-fluoro-5-(4-((1-(oxetan-3-yl)piperidin-4-yl)oxy)phenyl)pyridin-3-yl)-7-fluoro-3,4-dihydroisoquinolin-1(2H)-one], the IC50 is 11 to 100 nM in assay [1] and > 1000 nM on Lck (h).

`CC(=O)N1CC(Oc2ccc(-c3cc(-c4ccc5c(c4)CCNC5=O)c(N)nc3F)cc2)C1` [I-326, 6-(5-(4-((1-acetylazetidin-3-yl)oxy)phenyl)-2-amino-6-fluoropyridin-3-yl)-3,4-dihydroisoquinolin-1(2H)-one]: the IC50 in assay [1] was 0.1 to 10 nM; at Lck (h) it was > 1000 nM.

With `CC(=O)N1CCC(Oc2ccc(-c3cc(-c4cc5c(cc4F)C(=O)NCC5)c(N)nc3F)cc2)CC1` [I-327, 6-(5-(4-((1-acetylpiperidin-4-yl)oxy)phenyl)-2-amino-6-fluoropyridin-3-yl)-7-fluoro-3,4-dihydroisoquinolin-1(2H)-one], the results for the IC50 (in assay [1]; at Lck (h)) were 0.1 to 10 nM and > 1000 nM, respectively.
